Patent US6653280B2, “Antifungal polypeptide AlyAFP from Alyssum and methods for controlling plant pathogenic fungi” (Monsanto Technology LLC, priority 1996, dated 2003)
Like-named read-outs stand apart in the source and are kept apart here.

Tests used:
[1] = tested on: Verticillium dahliae; assay: Antifungal activity: inhibition of fungal hyphal growth (microscopy); format: cell-based; settings: V. dahliae
Description: (§1) The antifungal activity of AlyAFP can be expressed as the concentration thereof in μg/ml required to cause 50% inhibition of fungal hyphal growth (IC50). Percent fungal hyphal growth inhibition is defined as 100×the ratio of the average hyphae length in the test sample culture divided by the average hyphae length in the control culture in which buffer is added in place of the polypeptide sample.
(§2) The antifungal activity of AlyAFP was determined by measuring the inhibition of fungal hyphal length of a number of different fungi in the presence of this polypeptide under an inverted microscope. Fungal spores (2×10^4 spores/ml) were allowed to germinate for 5 to 15 hours, depending on the fungus used in the test, in 50 μl of double strength testing medium. […] For experiments on the antagonistic effect of cations, CaCl2 and KCl were added to final concentrations of 1 mM and 50 mM, respectively. This salt-supplemented medium is refered to as “high salt medium,” and the original medium is refered to as “low salt medium.” After spore germination, 50 μl of a filter-sterilized solution of polypeptide in distilled water were added to the testing well containing the germinated spores, and the mixture was incubated for 15 to 24 hours at 24° C. […] Polypeptide concentrations were determined using the BCA protein assay kit obtained from Pierce (Rockford, Ill.).

[2] = tested on: Verticillium dahliae; assay: Verticillium wilt disease test on transgenic potato plants expressing the polypeptide; format: in vivo, potato (Solanum tuberosum var. Russet Burbank); settings: for Disease Severity (%) (44 Days Post Inoc.): average of 3 replicates; for Verticillium wilt resistance conferred to potato plants: expression levels as high as 25 μg/g fresh leaf tissue; for Disease Severity (%) (58 Days Post Inoc.): average of three replicates; for difference in disease progress between expressing lines and control lines: rated at 49, 58, and 64 days post inoculation
Description: Conidia and mycelia of a 2-3 week old culture of virulent Verticillium dahliae were used to inoculate a PDA (potatoes, 200 g/l; Bacto dextrose, 20 g/l; and Bacto agar, 15 g/l ) Petri plate. This culture was allowed to grow at 22° C. for 4-5 days. Conidia were then harvested by washing the culture plate with sterile distilled water and filtering the liquid through two layers of cheesecloth. The conidial spore concentration was determined using a hemacytometer, and adjusted to 1×10^6 conidia/ml with sterile distilled water.
Transgenic and non-transgenic potato plants were grown from stem cuttings under sterile conditions as described above in plastic cups containing 50 mls of PM-agar medium. When plants were about 1-2 inches tall, they were removed from the medium and their roots were dipped in the spore suspension (Joaquim et al. (1991) Phytopathology 81:552-558). The inoculated plants were then transplanted into 6-inch pots containing Metro-Mix 350. After transplanting, each plant received an additional 5mls of the spore suspension on the soil surface around the base of the stem. The pots were placed in a growth chamber under the following conditions: temperature at 20° C., light intensity at 320 μEinstein/sec/cm^2, 12 hr day/12 hr night light cycle, subirrigation with water 2 times/day, 20 minutes soaking each time. Four weeks after inoculation, the plants were scored for disease severity on a scale of 0-100% (Horsfall et al. (1945) Phytopathology 35:655). To develop a disease progress curve over time, plants were rated once a week for at least 8 weeks.
Table 3 summarizes the protein expression level in each of the lines, and the disease severity rating of each individual line in the test determined at 44 days post inoculation. The disease severity rating was the average of 3 replicates. For convenience, the same disease data are also presented as a bar graph in FIG. 11. The order of appearance of each potato line in Table 3 (from top to bottom) and in FIG. 11 (from left to right) is the same.
In this test, disease symptoms appeared in the experimental and control plants at approximately 49 days post inoculation. Disease progress was rated at 49, 58, and 64 days post inoculation. […] The disease severity rating was the average of three replicates. Table 4 summarizes the protein expression level in each of the lines, and the disease severity rating of each individual line determined at 58 days post inoculation. For convenience, the same disease data are also presented as a bar graph in FIG. 12. The order of appearance of each potato line in Table 4 (from top to bottom) and in FIG. 12 (from left to right) is the same.

[3] = ELISA of antifungal polypeptide expression in leaves of transgenic potato plants; set-up: species or system potato (Solanum tuberosum var. Russet Burbank); settings: 3 transgenic potato lines
Description: Leaf samples (20 to 100 mg) were taken from transgenic plants grown to 1 to 2 inches in height. The leaf samples were ground in PBST buffer (15 μl/mg tissue) containing 1 mM KH2PO4, 10 mM Na2HPO4, 137 mM NaCl, 2.7 mM KCl, pH 7.4, and 0.05% Tween-20, and allowed to sit at 4° C. overnight. After centrifugation, 100 μl of the supernatant were used in an ELISA assay. Polyclonal antibodies against Rs-AFP1 polypeptide (SEQ ID NO:18) were prepared by Pocono Rabbit Farm (Pocono, Pa.). Wells of a Nunc Maxi-sorp 96 well plate (Nunc #4-39454) were coated with antibodies against Rs-AFP1 polypeptide by adding 100 μl of antibodies (1 mg IgG/ml) diluted 1:200 in coating buffer containing 1.59 g Na2CO3 and 2.93 g NaHCO3 per liter distilled water, pH 9.6, and incubating at 4° C. overnight. The coating solution was then removed from the wells, which were then washed three times with PBST. One hundred μl of leaf supernatant or appropriately diluted polypeptide standards in PBST supplemented with 0.2% (w/v) BSA, fraction V (Sigma, St. Louis) were added to the wells. The concentration of each polypeptide in extracts from transgenic plants was determined from standard curves constructed using varying amounts of the respective purified polypeptide. […] The optical density at 405 nm was determined using a Thermo-max microplate reader (Molecular Devices, Menlo Park, Calif.). […]

[4] = tested on: Fusarium culmorum; settings: F. culmorum
Description: as §1, §2

[5] = tested on: Fusarium culmorum; settings: F. culmorum, comparison peptides disclosed in WO 93/05153, cited from earlier work
[6] = tested on: Verticillium dahliae; settings: V. dahliae, comparison peptides disclosed in WO 93/05153, cited from earlier work
[7] = high salt medium (1 mM CaCl2, 50 mM KCl)
[8] = 58 days post inoc., average of the 5 expressing lines marked +, vector control 60.0

For “AlyAFP: antifungal polypeptide of 50 amino acids obtainable from flowers of Alyssum, SEQ ID NO:2 (RLCERPSGTWSGVCGNNNACRNQCRNLERAEHGSCNYVFPAHKCICYFPC)”, the “IC50” value [1, 7] was less than 5 µg/mL, the “IC50” value ([1]; low salt medium) was less than 1 µg/mL and the “Average Dis. Sev.” value ([2]; 44 days post inoc., average of the 8 high and medium expressing lines marked +, vector control 39.2) was 14.9%. The “disease severity less than that of the vector control” value ([2]; average of 8 high and medium expressing lines vs average of 3 vector control lines, 44 days) was 62%, the “disease severity less than that of the vector control” value ([2]; best high expressing lines #17575 and #17587, 44 days) was 82% and the “disease resistance as compared to the vector controls” value ([2]; low expressing lines (0.9 to 1.1 μg/g fresh leaf tissue)) was “did not exhibit any significant level of disease resistance”. The “Disease Severity (%) (44 Days Post Inoc.)” value ([2]; potato line 17575, 14.9 μg AFP/g tissue) was 7.5%, the “Disease Severity (%) (44 Days Post Inoc.)” value ([2]; potato line 17578, 12.7 μg AFP/g tissue) was 15% and the “Disease Severity (%) (44 Days Post Inoc.)” value ([2]; potato line 17580, 0.9 μg AFP/g tissue) was 33.3%. The “Disease Severity (%) (44 Days Post Inoc.)” value ([2]; potato line 17581, 9.2 μg AFP/g tissue) was 24.3%, the “Disease Severity (%) (44 Days Post Inoc.)” value ([2]; potato line 17587, 9.6 μg AFP/g tissue) was 6.3% and the “Disease Severity (%) (44 Days Post Inoc.)” value ([2]; potato line 17589, 1.1 μg AFP/g tissue) was 43.8%. For the same substance, the “Disease Severity (%) (44 Days Post Inoc.)” value ([2]; potato line 17592, 2.6 μg AFP/g tissue) was 11.8%, the “Disease Severity (%) (44 Days Post Inoc.)” value ([2]; potato line 17593, 2.6 μg AFP/g tissue) was 17.3% and the “Disease Severity (%) (44 Days Post Inoc.)” value ([2]; potato line 17595, 5.2 μg AFP/g tissue) was 21%. For the same substance, the “Disease Severity (%) (44 Days Post Inoc.)” value ([2]; potato line 17618, 2.6 μg AFP/g tissue) was 16.3%, the “expression level at which potato plants exhibit resistance to Verticillium wilt” value ([2]; transgenic potato plants) was no less than 2.6 μg/g fresh leaf tissue and the “expression level, medium expressers” value [3] was 2.6 μg AlyAFP/g fresh leaf tissue. The “IC50” value [4, 7] was less than 10 µg/mL and the “IC50” value ([4]; low salt medium) was less than 2 µg/mL.
For “Rs-AFP1: small cysteine-rich antifungal protein isolated from radish seed (WO 93/05153), SEQ ID NO:18 (QKLCERPSGTWSGVCGNNNACKNQCINLEKARHGSCNYVFPAHKCICYFPC)”, the “IC50” value ([5]; high salt) is given as 70 µg/mL, the “IC50” value ([5]; low salt) is given as 5 µg/mL and the “IC50” value ([6]; high salt) is given as greater than 100 µg/mL. The “IC50” value ([6]; low salt) was 5 µg/mL, the “Average Dis. Sev.” value [2, 8] was 59.8% and the “Verticillium wilt resistance conferred to potato plants” value [2] was “did not provide any significant level of Verticillium wilt resistance”. For the same substance, the “Disease Severity (%) (58 Days Post Inoc.)” value ([2]; potato line 15117, 9.7 μg AFP/g tissue) was 47.5%, the “Disease Severity (%) (58 Days Post Inoc.)” value ([2]; potato line 15120, 8.0 μg AFP/g tissue) was 50.0% and the “Disease Severity (%) (58 Days Post Inoc.)” value ([2]; potato line 15124, 26 μg AFP/g tissue) was 56.3%. For the same substance, the “Disease Severity (%) (58 Days Post Inoc.)” value ([2]; potato line 15143, 18.3 μg AFP/g tissue) was 78.8%, the “Disease Severity (%) (58 Days Post Inoc.)” value ([2]; potato line 15154, 5.2 μg AFP/g tissue) was 66.3% and the “difference in disease progress between expressing lines and control lines” value [2] was “No differences”.
For “Rs-AFP2: small cysteine-rich antifungal protein isolated from radish seed (WO 93/05153), SEQ ID NO:19 (QKLCQRPSGTWSGVCGNNNACKNQCIRLEKARHGSCNYVFPAHKCICYFPC)”, the “IC50” value ([5]; high salt) is given as 5 µg/mL, the “IC50” value ([5]; low salt) is given as 2 µg/mL and the “IC50” value ([6]; high salt) is given as 50 µg/mL. The “IC50” value ([6]; low salt) was 1.5 µg/mL, the “Average Dis. Sev.” value [2, 8] was 64.0% and the “Verticillium wilt resistance conferred to potato plants” value [2] was “did not provide any significant level of Verticillium wilt resistance”. For the same substance, the “Disease Severity (%) (58 Days Post Inoc.)” value ([2]; potato line 13500, 10.8 μg AFP/g tissue) was 82.5%, the “Disease Severity (%) (58 Days Post Inoc.)” value ([2]; potato line 13501, 25.2 μg AFP/g tissue) was 76.3% and the “Disease Severity (%) (58 Days Post Inoc.)” value ([2]; potato line 13503, 25.1 μg AFP/g tissue) was 53.8%. For the same substance, the “Disease Severity (%) (58 Days Post Inoc.)” value ([2]; potato line 13531, 16.2 μg AFP/g tissue) was 72.5%, the “Disease Severity (%) (58 Days Post Inoc.)” value ([2]; potato line 13532, 17.5 μg AFP/g tissue) was 35.0% and the “difference in disease progress between expressing lines and control lines” value [2] was “No differences”.
